Measured values taken from PubChem BioAssay (NCI).
Values joined by “and” are separate entries in the source; they are usually repeats but may differ in a detail not shown here. Equal entries are not always repeated.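 Step 1: Grow cells in 96-well plates. Step 2: Expose to compound for 48 hours at 5 concentrations. Step 3: Interpolate endpoints linearly; if unreached, use highest concentration. Abbreviation: GI50, concentration required for 50% inhibition of growth. Definition used: TGI = concentration required for complete inhibition of growth.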 Where a SMILES comes first, the peptide text is derived from it. [ ]: non-standard residue; d: D form. Phe(4-Cl) = N[CH](Cc1ccc(Cl)cc1)C(=O)O

Columns and labels:
Experiment in all cases: growth of human tumour cells (NCI), 48 h
[1] = system: A498 renal
[2] = system: A549 NSCLC
[3] = system: CCRF-CEM leukemia
[4] = system: K-562 leukemia
[5] = system: M14 melanoma
[6] = system: MOLT-4 leukemia
[7] = system: NCI-H460 lung
[8] = system: OVCAR-5 ovarian
[9] = system: TK-10 renal

SMILES	TGI [1] [µM]	TGI [2] [µM]	TGI [3]	TGI [4]	TGI [5] [µM]	TGI [6]	TGI [7] [µM]	TGI [8] [µM]	TGI [9] [µM]	GI50 [1]	GI50 [2]	GI50 [3]	GI50 [4]	GI50 [5]	GI50 [6]	GI50 [7]	GI50 [8]	GI50 [9]
CC(O)C(NC(=O)C(Cc1ccccc1)NC(=O)C(NC(=O)C(CCCCN)NC(=O)C(Cc1c[nH]c2ccccc12)NC(=O)C(Cc1ccc(O)cc1)NC(=O)C(Cc1ccc(Cl)cc1)NC(=O)C(N)Cc1ccccc1)C(C)O)C(N)=O (stereo not drawn) (H-F[Phe(4-Cl)]YWKTFT-NH2; configuration not given here)	34	36	29.3 µM	28.9 µM	47.1	62.2 µM	32.5											
CC(C)(C)OC(=O)Cc1ccc2c(ccn2Cc2ccccc2)c1	> 100	> 100	> 100 µM	> 100 µM	> 100	> 100 µM	> 100	> 100	> 100									
Cc1ccccc1N(CCC#N)C1=NN(C(=O)CC(=O)Nc2ccccc2)C(c2ccccc2)C1 (stereo not drawn)		> 100	> 100 µM	> 100 µM	> 100	> 100 µM	> 100	> 100										
O=c1cccccc1NCCCNc1cccccc1=O		> 100	> 100 µM	> 100 µM	> 100	> 100 µM	> 100	> 100										
CN(C)CC/C(=N\Nc1c(Cl)cccc1Cl)c1ccccc1	34.8	> 100	79.3 µM	52.3 µM	34.2	71.7 µM	29.9	35.7	30.9									
CC(=O)OC[C@]12CC[C@H]3[C@@H](C[C@H]4O[C@]45[C@@H](O)C=CC(=O)[C@]35C)[C@@H]1CC[C@@H]2[C@H](C)[C@H]1CC(C)=C(C)C(=O)O1	2.77	3.2	0.745 µM and 1.82 µM	0.849 µM and 0.979 µM	1.11	0.878 µM and 0.615 µM	3.53	2.5	1.82	0.852 µM and 1.2 µM	0.822 µM and 1.04 µM	0.229 µM and 0.112 µM	0.272 µM and 0.201 µM	0.442 µM and 0.32 µM	0.289 µM and 0.191 µM	0.588 µM and 1.07 µM	0.883 µM and 1.21 µM	0.548 µM and 0.68 µM
COc1cc(OC(=O)c2c(O)cc(O)c(O)c2C)cc(C)c1C(=O)Oc1cc(C)c(C(=O)O)c(O)c1	> 100	> 100	> 100 µM	> 100 µM	> 100	> 100 µM	> 100	> 100	> 100									
COC(=O)C1=NC(=S)NC(c2ccccc2)C1c1nc2ccccc2s1 (stereo not drawn)	> 100	> 100	> 100 µM		> 100	> 100 µM	> 100		> 100									
CC(=O)[CH-]C(=O)c1ccccc1.CC(=O)[CH-]C(=O)c1ccccc1.O=C([O-])c1ccc([O-])cc1.O=C([O-])c1ccc([O-])cc1.[Ti+4]		> 100	62.8 µM	> 100 µM	> 100	79.3 µM	> 100	> 100			69.1 µM	15.4 µM	33.5 µM	40.2 µM	23.8 µM	44.2 µM	74.5 µM	
O=C(O)CP(=S)(S)c1ccccc1 (stereo not drawn)	> 100	> 100	> 100 µM	> 100 µM	> 100	> 100 µM	> 100		> 100									
CN(C)P(=O)(/C(N)=N/Nc1ccc([N+](=O)[O-])cc1)N(C)C		> 100	> 100 µM	> 100 µM	> 100	> 100 µM	> 100	> 100	> 100									
Cc1ccc(Nc2nc3c(s2)C(=O)c2ccccc2C3=O)c(C)c1	> 100	37.6	25.8 µM	43 µM	28.9	23.4 µM	54.2	34.8	36.6									
CCOC(=O)NC(=O)c1cn(CCOCCOC(=O)NCCCCCCNC(=O)OCCOCCn2cc(C(=O)NC(=O)OCC)c(=O)[nH]c2=O)c(=O)[nH]c1=O	> 100	> 100		> 100 µM	> 100		> 100	> 100	> 100									
CC1=C2C(=O)O[C@@H](c3ccoc3)[C@]2(C)CCC1		> 100	> 100 µM	> 100 µM	> 100	> 100 µM	> 100	> 100	> 100									
Cc1cccc(NC(=O)C(=O)Cc2nc3ccccc3[nH]c2=O)c1C	> 100	> 100	> 100 µM	> 100 µM	> 100		> 100	> 100	> 100									
Cc1ccc(N(C(=O)CC(=O)NN)C(=O)c2ccccc2Cl)cc1	> 100	> 100	> 100 µM	> 100 µM	> 100	> 100 µM	> 100	> 100										
